Results reported in ChEMBL document CHEMBL1149514, “Tetrahydrofluorenones with conformationally restricted side chains as selective estrogen receptor beta ligands” (Bioorg Med Chem Lett, 2006).

Tests used:
Estrogen receptor = molecular target: T1, Estrogen receptor (Homo sapiens, UniProt P03372)
T1 sequence (P03372 whole entry): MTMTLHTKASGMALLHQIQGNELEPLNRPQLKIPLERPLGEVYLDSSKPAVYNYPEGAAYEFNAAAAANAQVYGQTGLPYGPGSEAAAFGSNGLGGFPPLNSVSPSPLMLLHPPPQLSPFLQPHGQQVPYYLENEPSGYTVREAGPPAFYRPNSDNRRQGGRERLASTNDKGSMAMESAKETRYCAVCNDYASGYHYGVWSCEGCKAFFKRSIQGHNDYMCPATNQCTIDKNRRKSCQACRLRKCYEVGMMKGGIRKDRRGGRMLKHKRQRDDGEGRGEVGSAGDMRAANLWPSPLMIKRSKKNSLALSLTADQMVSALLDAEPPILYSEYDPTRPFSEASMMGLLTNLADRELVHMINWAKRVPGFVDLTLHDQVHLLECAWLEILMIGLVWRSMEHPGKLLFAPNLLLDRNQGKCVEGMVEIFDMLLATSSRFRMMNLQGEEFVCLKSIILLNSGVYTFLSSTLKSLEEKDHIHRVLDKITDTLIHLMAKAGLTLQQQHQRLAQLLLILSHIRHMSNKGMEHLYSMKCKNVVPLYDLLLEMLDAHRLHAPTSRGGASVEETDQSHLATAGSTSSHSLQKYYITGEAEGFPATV
Description: Binding affinity to human recombinant ERalpha by scintillation proximity assay

Estrogen receptor beta = Estrogen receptor beta (Homo sapiens, UniProt Q92731)
Chain of Estrogen receptor beta (Q92731 whole entry): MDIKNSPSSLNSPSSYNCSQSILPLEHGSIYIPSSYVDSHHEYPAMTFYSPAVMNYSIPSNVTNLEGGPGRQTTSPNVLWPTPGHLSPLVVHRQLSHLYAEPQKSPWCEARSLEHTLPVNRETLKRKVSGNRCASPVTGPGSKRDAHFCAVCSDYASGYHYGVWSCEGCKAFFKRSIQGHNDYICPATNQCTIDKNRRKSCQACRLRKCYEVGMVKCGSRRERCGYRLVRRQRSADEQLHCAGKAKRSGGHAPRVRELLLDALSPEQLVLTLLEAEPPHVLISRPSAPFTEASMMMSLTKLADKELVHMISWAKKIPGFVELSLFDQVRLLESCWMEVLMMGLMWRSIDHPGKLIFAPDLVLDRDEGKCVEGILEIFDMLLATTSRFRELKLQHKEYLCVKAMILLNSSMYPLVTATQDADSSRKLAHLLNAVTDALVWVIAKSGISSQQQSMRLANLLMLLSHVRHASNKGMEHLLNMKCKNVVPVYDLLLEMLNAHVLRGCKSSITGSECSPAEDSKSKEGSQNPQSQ
Description: Binding affinity to human recombinant ERbeta by scintillation proximity assay

| Structure (SMILES) | IC50 (Estrogen receptor) | IC50 (Estrogen receptor beta) |
| --- | --- | --- |
| CC[C@@H]1CC[C@@H]2C[C@]13Cc1cc(O)ccc1C3=C(C)C2=O | 0.146 µM | 0.005 µM |
| CC1=C2c3ccc(O)cc3C[C@@]23CCC[C@H](C3)C1=O | 0.414 µM | 0.011 µM |
| CC[C@H]1CC[C@@H]2C[C@]13Cc1cc(O)ccc1C3=C(C)C2=O | 0.31 µM | 0.045 µM |

Now from value to compound:

| IC50 (Estrogen receptor) | IC50 (Estrogen receptor beta) | Structure (SMILES) |
| --- | --- | --- |
| 0.084 µM | 0.005 µM | CCC[C@@H]1CC[C@@H]2C[C@]13Cc1cc(O)ccc1C3=C(C)C2=O |
| 0.605 µM | 0.141 µM | CCC[C@H]1CC[C@@H]2C[C@]13Cc1cc(O)ccc1C3=C(C)C2=O |
| 0.793 µM | 0.012 µM | CC1=C2c3ccc(O)cc3C[C@@]23CC[C@H](C3)C1=O |
